This assay has as its target T1, orexin-2 receptor (Homo sapiens, UniProt O43614).
T1 construct: expressed in transfected cells; host or cells: CHO-K1 (preferred) or HEK-293 recombinant clones
T1 sequence (O43614 1-444): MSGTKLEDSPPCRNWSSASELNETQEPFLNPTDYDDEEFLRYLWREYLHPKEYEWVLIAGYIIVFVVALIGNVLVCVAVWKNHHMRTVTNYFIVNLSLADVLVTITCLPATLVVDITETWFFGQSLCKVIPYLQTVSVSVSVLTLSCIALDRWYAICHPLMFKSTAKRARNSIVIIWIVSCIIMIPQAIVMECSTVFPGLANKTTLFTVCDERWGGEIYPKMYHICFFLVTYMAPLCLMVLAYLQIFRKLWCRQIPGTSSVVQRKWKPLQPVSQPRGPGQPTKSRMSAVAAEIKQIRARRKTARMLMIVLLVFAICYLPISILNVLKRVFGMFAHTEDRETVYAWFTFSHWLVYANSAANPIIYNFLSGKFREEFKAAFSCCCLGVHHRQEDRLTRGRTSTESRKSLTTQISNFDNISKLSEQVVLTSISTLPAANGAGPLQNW
The assay is described as follows: Orexin radioligand binding assay (125I-orexin A, adherent recombinant cells). As to conditions: 125I-orexin A displacement, recombinant CHO-K1 or HEK-293 cells expressing the orexin receptor. As to the method:
The reaction was quenched with 100 μL of 10% w/v bovine serum albumin, then the products were pre-purified using Waters Maxi-Clean C18 cartridges (Alltech, San Jose, Calif.). The mobile phase for the reverse phase separations (pre-purification and gradient HPLC) was 0.1% TFA, and the eluent was 0.1% TFA in acetonitrile. After removing the acetonitrile from the Maxi-Clean cartridge eluent by lyophilization, the labeled compound was further purified by gradient HPLC using a Vydac (Hesperia, Calif.) analytical C18 HPLC column. A gradient of 2% acetonitrile/min was used and fractions were collected every 0.75 min at a flow rate of 1.5 mL/min.
Radioligand binding assays were performed in opaque, white 96-well tissue culture plates pretreated with poly-D-lysine (Bio-Coat plates, Becton Dickinson, Franklin Lakes, N.J.). Cells expressing the orexin receptor were seeded at 30,000 cells/well in 100 μL/well Ham's F12 with 10% heat inactivated fetal bovine serum, penicillin/streptomycin and 800 mg/L G418. […] In preparation for the binding assay, the cell culture medium was aspirated away, and the cells were gently washed with 100 μL-well binding buffer (Dulbecco's phosphate buffered saline containing 0.1% w/v bovine serum albumin). […] The assay was terminated by aspirating the liquid from the wells, washing the wells with iced binding buffer, aspirating the wells dry, adding 50 μL/well scintillation cocktail (MicroScint 40, Packard Biosciences, Meriden Conn.), and counting the plate(s) in a Packard TopCount scintillation counter. […] Data were analyzed using GraphPad Prizm software to calculate Ki values.

Molecules are shown by their SMILES.

One may read the Ki as a measure of affinity in units of concentration, obtained from inhibition or displacement.

As for `Cc1cc(Br)ccc1NC(=O)N[C@H]1COC(C)(C)O[C@H]1c1ccccc1` [Example 2, 1-(4-Bromo-2-methyl-phenyl)-3-((4S,5S)-2,2-dimethyl-4-phenyl-[1,3]dioxan-5-yl)-urea], the Ki came to 50 nM. In the case of `Cc1ccc(Cl)c(NC(=O)N[C@H]2COC(C)(C)O[C@H]2c2ccccc2)c1` [Example 3, 1-(2-Chloro-5-methyl-phenyl)-3-((4S,5S)-2,2-dimethyl-4-phenyl-[1,3]dioxan-5-yl)-urea], the Ki came to 27 nM.

`CC1(C)OC[C@H](NC(=O)Nc2ccccc2I)[C@H](c2ccccc2)O1` [Example 6, 1-((4S,5S)-2,2-Dimethyl-4-phenyl-[1,3]dioxan-5-yl)-3-(2-iodo-phenyl)-urea]: the Ki was 70 nM. Then `CC1(C)OC[C@H](NC(=O)Nc2ccc(I)cc2)[C@H](c2ccccc2)O1` [Example 7, 1-((4S,5S)-2,2-Dimethyl-4-phenyl-[1,3]dioxan-5-yl)-3-(4-iodo-phenyl)-urea], with 45 nM; and `CC1(C)OC[C@H](NC(=O)Nc2ccccc2C(F)(F)F)[C@H](c2ccccc2)O1` [Example 8, 1-((4S,5S)-2,2-Dimethyl-4-phenyl-[1,3]dioxan-5-yl)-3-(2-trifluoromethyl-phenyl)-urea], with 76 nM; and `Cc1cc(NC(=O)N[C@H]2COC(C)(C)O[C@H]2c2ccccc2)ccc1Br` [Example 9, 1-(4-Bromo-3-methyl-phenyl)-3-((4S,5S)-2,2-dimethyl-4-phenyl-[1,3]dioxan-5-yl)-urea], with 87 nM.

On to `CC1(C)OC[C@H](NC(=O)Nc2cc(Cl)ccc2Cl)[C@H](c2ccccc2)O1` [Example 10, 1-(2,5-Dichloro-phenyl)-3-((4S,5S)-2,2-dimethyl-4-phenyl-[1,3]dioxan-5-yl)-urea], for which the Ki turned out to be 98 nM. Then `Cc1ccc(C)c(NC(=O)N[C@H]2COC(C)(C)O[C@H]2c2ccccc2)c1` [Example 11, 1-(2,5-Dimethyl-phenyl)-3-((4S,5S)-2,2-dimethyl-4-phenyl-[1,3]dioxan-5-yl)-urea], with 64 nM; and `CC1(C)OC[C@H](NC(=O)Nc2ccccc2-c2cccs2)[C@H](c2ccccc2)O1` [Example 13, 1-((4S,5S)-2,2-Dimethyl-4-phenyl-[1,3]dioxan-5-yl)-3-(2-thiophen-2-yl-phenyl)-urea], with 34 nM; and `CC1(C)OC[C@H](NC(=O)Nc2ccccc2-c2cccc(Cl)c2)[C@H](c2ccccc2)O1` [Example 14, 1-(3′-Chloro-biphenyl-2-yl)-3-((4S,5S)-2,2-dimethyl-4-phenyl-[1,3]dioxan-5-yl)-urea], with 63 nM. On to `CC1(C)OC[C@H](NC(=O)Nc2ccccc2-c2ccsc2)[C@H](c2ccccc2)O1` [Example 15, 1-((4S,5S)-2,2-Dimethyl-4-phenyl-[1,3]dioxan-5-yl)-3-(2-thiophen-3-yl-phenyl)-urea], for which the Ki was found to be 100 nM. Then `CC1(C)OC[C@H](NC(=O)Nc2ccccc2-c2ccccc2)[C@H](c2ccccc2)O1` [Example 16, 1-Biphenyl-2-yl-3-((4S,5S)-2,2-dimethyl-4-phenyl-[1,3]dioxan-5-yl)-urea], with 56 nM; and `CC1(C)OC[C@H](NC(=O)Nc2cc(C(F)(F)F)ccc2Cl)[C@H](c2ccccc2)O1` [Example 17, 1-(2-Chloro-5-trifluoromethyl-phenyl)-3-((4S,5S)-2,2-dimethyl-4-phenyl-[1,3]dioxan-5-yl)-urea], with 120 nM. As for `CC1(C)OC[C@H](NC(=O)Nc2ccccc2C#N)[C@H](c2ccccc2)O1` [Example 20, 1-(2-Cyano-phenyl)-3-((4S,5S)-2,2-dimethyl-4-phenyl-[1,3]dioxan-5-yl)-urea], the figure is 60 nM; as for `CC1(C)OC[C@H](NC(=O)Nc2ccccc2Oc2ccccc2)[C@H](c2ccccc2)O1` [Example 21, 1-((4S,5S)-2,2-Dimethyl-4-phenyl-[1,3]dioxan-5-yl)-3-(2-phenoxy-phenyl)-urea], 210 nM; as for `CC1(C)OC[C@H](/N=C(\S)Nc2ccc(Cl)cc2Cl)[C@H](c2ccccc2)O1` [Example 22, 1-(2,4-Dichloro-phenyl)-3-((4S,5S)-2,2-dimethyl-4-phenyl-[1,3]dioxan-5-yl)-thiourea], 280 nM. As for `CC1(C)OC[C@H](NC(=O)Nc2ccccc2-c2cccnc2)[C@H](c2ccccc2)O1` [Example 23, 1-((4S,5S)-2,2-Dimethyl-4-phenyl-[1,3]dioxan-5-yl)-3-(2-pyridin-3-yl-phenyl)-urea], the figure is 320 nM; as for `CC1(C)OC[C@H](/N=C(\S)Nc2ccccc2Br)[C@H](c2ccccc2)O1` [Example 24, 1-(2-Bromo-phenyl)-3-((4S,5S)-2,2-dimethyl-4-phenyl-[1,3]dioxan-5-yl)-thiourea], 540 nM. Turning to `O=C(Nc1ccc(Br)cc1Br)N[C@H]1COC2(CCCCC2)O[C@H]1c1ccccc1` [Example 25, 1-(2,4-Dibromo-phenyl)-3-((2S,3S)-2-phenyl-1,5-dioxa-spiro[5.5]undec-3-yl)-urea], the Ki is 700 nM.

Consider `O=C(Nc1ccccc1Br)N[C@H]1COC2(CCCCC2)O[C@H]1c1ccccc1` [Example 26, 1-(2-Bromo-phenyl)-3-((2S,3S)-2-phenyl-1,5-dioxa-spiro[5.5]undec-3-yl)-urea], for which the inhibition constant (Ki) came out at 980 nM. As for `Cc1ccc(/N=C(\NC#N)N[C@H]2COC(C)(C)O[C@H]2c2ccccc2)c(Br)c1` [Example 27, N-(2-Bromo-4-methyl-phenyl)-N′-((4S,5S)-2,2-dimethyl-4-phenyl-[1,3]dioxan-5-yl)-N″-cyanoguanidine], the figure is 1000 nM.

Turning to `CC1(c2ccccc2)OC[C@H](NC(=O)Nc2ccccc2Br)[C@H](c2ccccc2)O1` (stereo partly drawn) [Example 28, 1-(2-Bromo-phenyl)-3-((4S,5S)-2-methyl-2,4-diphenyl-[1,3]dioxan-5-yl)-urea], the Ki came to 2600 nM.

As for `Cc1ccc(NC(=O)N[C@H]2COC(C)(C)O[C@H]2c2ccccc2)c(C)c1` [Example 29, 1-(2,4-Dimethyl-phenyl)-3-((4S,5S)-2,2-dimethyl-4-phenyl-[1,3]dioxan-5-yl)-urea], the Ki is 200 nM. Turning to `CC1(C)OC[C@H](NC(=O)Nc2ccccc2Cl)[C@H](c2ccccc2)O1` [Example 30, 1-(2-Chloro-phenyl)-3-((4S,5S)-2,2-dimethyl-4-phenyl-[1,3]dioxan-5-yl)-urea], the Ki was 300 nM. With `CC1(C)OC[C@H](NC(=O)Nc2ccccc2F)[C@H](c2ccccc2)O1` [Example 31, 1-((4S,5S)-2,2-Dimethyl-4-phenyl-[1,3]dioxan-5-yl)-3-(2-fluoro-phenyl)-urea], the Ki came to 1550 nM. `Cc1ccccc1NC(=O)N[C@H]1COC(C)(C)O[C@H]1c1ccccc1` [Example 32, 1-((4S,5S)-2,2-Dimethyl-4-phenyl-[1,3]dioxan-5-yl)-3-o-tolyl-urea]: the Ki was determined as 650 nM. On to `CC1(C)OC[C@H](NC(=O)Nc2ccccc2[N+](=O)[O-])[C@H](c2ccccc2)O1` [Example 33, 1-((4S,5S)-2,2-Dimethyl-4-phenyl-[1,3]dioxan-5-yl)-3-(2-nitro-phenyl)-urea], for which the Ki was determined as 580 nM. Turning to `CC1(C)OC[C@H](NC(=O)Cc2ccccc2Br)[C@H](c2ccccc2)O1` [Example 34, 2-(2-Bromo-phenyl)-N-((4S,5S)-2,2-dimethyl-4-phenyl-[1,3]dioxan-5-yl)-acetamide], the Ki was 2200 nM. As for `CC1(C)OC[C@H](NC(=O)Oc2ccccc2Cl)[C@H](c2ccccc2)O1` [Example 35, ((4S,5S)-2,2-Dimethyl-4-phenyl-[1,3]dioxan-5-yl)-carbamic acid 2-chloro-phenyl ester], the figure is 2600 nM; as for `CC1(C)OC[C@H](NC(=O)Nc2ccc(Br)cc2)[C@H](c2ccccc2)O1` [Example 36, 1-(4-Bromo-phenyl)-3-((4S,5S)-2,2-dimethyl-4-phenyl-[1,3]dioxan-5-yl)-urea], 1400 nM; as for `COc1ccccc1NC(=O)N[C@H]1COC(C)(C)O[C@H]1c1ccccc1` [Example 37, 1-((4S,5S)-2,2-Dimethyl-4-phenyl-[1,3]dioxan-5-yl)-3-(2-methoxy-phenyl)-urea], 6000 nM.

For the compound `CC1(C)OC[C@H](NC(=O)Nc2ccc(-c3cccnc3)cc2)[C@H](c2ccccc2)O1` [Example 38, 1-((4S,5S)-2,2-Dimethyl-4-phenyl-[1,3]dioxan-5-yl)-3-(4-pyridin-3-yl-phenyl)-urea], the Ki was 320 nM. With `CC1(C)OC[C@H](NC(=O)Nc2ccc(Cl)cc2)[C@H](c2ccccc2)O1` [Example 39, 1-(4-Chloro-phenyl)-3-((4S,5S)-2,2-dimethyl-4-phenyl-[1,3]dioxan-5-yl)-urea], the Ki amounted to 300 nM.

Source of the values: patent US6951882B2, “Substituted 4-phenyl-[1,3]-dioxanes” (Janssen Pharmaceutica N.V., priority 2002, dated 2005).
